{"source": "patent US20230416199A1", "about": "“INHIBITORS OF AMINO ACID TRANSPORT” (ICAHN SCHOOL OF MEDICINE AT MOUNT SINAI, priority 2020, published 2023)", "type_in_all_cases": "cell-based", "key": {"rASCT2 [1]": {"biological_target": "T1, rASCT2 (Rattus norvegicus, UniProt D3ZJ25)", "T1 construct": "expressed in transfected cells; host or cells: HEK293 (ATCC CRL-11268), transient transfection", "T1 sequence (D3ZJ25 1-555)": "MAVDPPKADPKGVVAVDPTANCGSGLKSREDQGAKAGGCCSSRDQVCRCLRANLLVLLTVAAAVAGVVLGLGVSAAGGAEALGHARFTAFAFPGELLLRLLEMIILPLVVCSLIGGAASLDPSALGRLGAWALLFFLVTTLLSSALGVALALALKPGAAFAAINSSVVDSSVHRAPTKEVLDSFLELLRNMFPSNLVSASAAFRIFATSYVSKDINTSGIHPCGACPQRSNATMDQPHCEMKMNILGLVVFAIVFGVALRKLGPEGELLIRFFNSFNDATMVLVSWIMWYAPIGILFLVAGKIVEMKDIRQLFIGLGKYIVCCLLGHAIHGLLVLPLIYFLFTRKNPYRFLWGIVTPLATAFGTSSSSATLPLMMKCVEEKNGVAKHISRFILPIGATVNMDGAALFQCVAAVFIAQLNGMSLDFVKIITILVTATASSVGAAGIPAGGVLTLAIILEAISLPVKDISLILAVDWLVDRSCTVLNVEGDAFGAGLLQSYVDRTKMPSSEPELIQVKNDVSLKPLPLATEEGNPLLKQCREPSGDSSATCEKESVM", "assay": "Electrophysiology (whole-cell current recording) of transfected HEK293 cells, rASCT2", "experimental": "(§1) Human embryonic kidney 293 (HEK293, ATCC CRL-11268) cells were cultured in DMEM media supplemented with 10% (v v) fetal bovine serum (FBS), 2 mM glutamine, 1% penicillin streptomycin solution, 1 mM sodium pyruvate and non-essential amino acids. Cells were maintained at 37° C. in a fully humidified atmosphere containing 5% CO2. rASCT2, hASCT2, hASCT1, EAAT1, EAAT2, EAAC1, EAAT5 and YFP complementary DNAs were each used to transiently transfect HEK293 using POLYPLUS Jet-prime transfection reagent. Cells were analyzed using electrophysiological techniques 24-40 hours after transfection.\n(§2) Stock solutions of inhibitor was prepared in dimethyl sulfoxide (DMSO) up to 100 mM. Dilutions to working concentrations were made using external buffer. […] For rASCT2, hASCT2 and hASCT1, external buffer contained 140 mM NaCl, 2 mM MgCl2, 2 mM CaCl2), and 10 mM HEPES, pH 7.40 while internal pipette solution comprised of 130 mM NaSCN, 2 mM MgCl2, 10 mM EGTA, 10 mM HEPES and 10 mM alanine, pH 7.40. For specificity experiments with EAAT1, EAAT2, EAAC1 and EAAT5, internal solution contained 10 mM glutamate instead of alanine. Compounds were applied to HEK293 cells expressing DNA of interest suspended from a current recording electrode in whole cell configuration through a rapid solution exchange device. Cells are immersed in external buffer bath used to dissolve the inhibitors. The open pipette resistance was between 3 and 6 MΩ. Series resistance was not compensated in these experiments due to relatively small currents. Currents traces were recorded using an Adams and List EPC7 amplifier and digitized using a Molecular Devices Digidata A/D converter.\n(§3) Linear and nonlinear curve fitting of the experimental data were analyzed using MicroCal Origin software. Nonlinear dose-response relationships were fitted with a Michaelis-Menten-like equation to obtain apparent Ki values in the absence of substrate (see TABLE 2 for Ki values). The figures show representative current traces and dose-response curves for hACST2 and rASCT2, used to obtain Ki values in TABLE 2 for compound SN 40. At least four experiments were performed with at least three different cells. Error bars in all graphs, e.g., in FIG. 1B and FIG. 1C and tables (Ki values) represent mean±SD."}, "hASCT2 [2]": {"biological_target": "T2, hASCT2 (Homo sapiens, UniProt Q15758)", "T2 construct": "expressed in transfected cells; host or cells: HEK293 (ATCC CRL-11268), transient transfection", "T2 sequence (Q15758 1-541)": "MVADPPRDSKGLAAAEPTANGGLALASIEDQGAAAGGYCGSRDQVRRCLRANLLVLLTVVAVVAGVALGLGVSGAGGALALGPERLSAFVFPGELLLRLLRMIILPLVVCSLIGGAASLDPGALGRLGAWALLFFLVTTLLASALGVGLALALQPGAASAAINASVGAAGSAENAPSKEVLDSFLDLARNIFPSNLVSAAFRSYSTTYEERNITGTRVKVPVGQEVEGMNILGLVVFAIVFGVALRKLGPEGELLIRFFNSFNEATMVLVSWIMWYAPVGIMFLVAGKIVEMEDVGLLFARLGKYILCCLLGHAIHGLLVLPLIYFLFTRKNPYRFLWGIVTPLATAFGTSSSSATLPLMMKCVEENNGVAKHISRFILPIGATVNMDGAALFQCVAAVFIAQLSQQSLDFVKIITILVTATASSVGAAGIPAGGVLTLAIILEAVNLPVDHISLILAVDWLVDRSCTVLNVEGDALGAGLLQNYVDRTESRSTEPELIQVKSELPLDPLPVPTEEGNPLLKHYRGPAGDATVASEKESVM", "assay": "Electrophysiology (whole-cell current recording) of transfected HEK293 cells, hASCT2", "experimental": "as §1, §2, §3"}, "rASCT2 [3]": {"biological_target": "T1, rASCT2", "assay": "Competition experiment with alanine, rASCT2", "conditions": "second entry of the cell; for Ki: read-out: Competition Expt (h/rASCT2 Ki): rASCT2 Ki"}, "hASCT2 [4]": {"biological_target": "T2, hASCT2", "assay": "Competition experiment with alanine, hASCT2", "conditions": "first entry of the cell; for Ki: read-out: Competition Expt (h/rASCT2 Ki): hASCT2 Ki"}, "EAAT5": {"biological_target": "T3, EAAT5 (Homo sapiens, UniProt O00341)", "T3 construct": "expressed in transfected cells; host or cells: HEK293 (ATCC CRL-11268), transient transfection", "T3 sequence (O00341 whole entry, species assumed)": "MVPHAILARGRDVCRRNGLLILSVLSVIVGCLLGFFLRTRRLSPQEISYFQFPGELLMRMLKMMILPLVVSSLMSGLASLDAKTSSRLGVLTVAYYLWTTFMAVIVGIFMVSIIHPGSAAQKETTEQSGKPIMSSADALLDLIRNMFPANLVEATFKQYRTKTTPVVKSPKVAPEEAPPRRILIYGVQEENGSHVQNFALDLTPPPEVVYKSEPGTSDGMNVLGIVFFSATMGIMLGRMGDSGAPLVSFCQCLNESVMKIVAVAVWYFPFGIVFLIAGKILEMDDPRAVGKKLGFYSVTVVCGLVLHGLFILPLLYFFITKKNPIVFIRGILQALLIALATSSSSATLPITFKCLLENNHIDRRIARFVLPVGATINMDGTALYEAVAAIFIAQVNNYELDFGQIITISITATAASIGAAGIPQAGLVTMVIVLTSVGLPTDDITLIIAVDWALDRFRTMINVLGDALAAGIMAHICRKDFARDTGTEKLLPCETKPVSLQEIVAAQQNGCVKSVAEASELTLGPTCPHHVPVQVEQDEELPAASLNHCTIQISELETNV", "assay": "Electrophysiology specificity experiment in transfected HEK293 cells, EAAT5", "conditions": "apparent Ki, HEK293, internal solution 10 mM glutamate, mean ± SD", "experimental": "as §1, §2, §3"}, "hASCT1": {"biological_target": "T4, hASCT1 (Homo sapiens, UniProt P43007)", "T4 construct": "expressed in transfected cells; host or cells: HEK293 (ATCC CRL-11268), transient transfection", "T4 sequence (P43007 1-532)": "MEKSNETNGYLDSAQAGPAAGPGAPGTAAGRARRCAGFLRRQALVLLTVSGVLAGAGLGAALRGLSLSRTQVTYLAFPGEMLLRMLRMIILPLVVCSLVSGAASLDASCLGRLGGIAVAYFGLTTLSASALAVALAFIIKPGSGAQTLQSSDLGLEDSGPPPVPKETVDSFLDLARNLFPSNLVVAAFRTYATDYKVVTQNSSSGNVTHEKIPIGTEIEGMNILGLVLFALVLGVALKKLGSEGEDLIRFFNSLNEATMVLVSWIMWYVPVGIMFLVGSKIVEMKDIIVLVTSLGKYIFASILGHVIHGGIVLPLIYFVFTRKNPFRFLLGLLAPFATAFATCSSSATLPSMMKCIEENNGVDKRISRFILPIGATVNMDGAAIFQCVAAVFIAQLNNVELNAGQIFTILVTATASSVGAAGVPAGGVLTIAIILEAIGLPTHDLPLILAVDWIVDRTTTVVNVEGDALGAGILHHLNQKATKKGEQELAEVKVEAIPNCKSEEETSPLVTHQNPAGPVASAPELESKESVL", "assay": "Electrophysiology (whole-cell current recording) of transfected HEK293 cells, hASCT1", "experimental": "as §1, §2, §3"}, "EAAT1": {"biological_target": "T5, EAAT1 (Homo sapiens, UniProt P43003)", "T5 construct": "expressed in transfected cells; host or cells: HEK293 (ATCC CRL-11268), transient transfection", "T5 sequence (P43003 whole entry, species assumed)": "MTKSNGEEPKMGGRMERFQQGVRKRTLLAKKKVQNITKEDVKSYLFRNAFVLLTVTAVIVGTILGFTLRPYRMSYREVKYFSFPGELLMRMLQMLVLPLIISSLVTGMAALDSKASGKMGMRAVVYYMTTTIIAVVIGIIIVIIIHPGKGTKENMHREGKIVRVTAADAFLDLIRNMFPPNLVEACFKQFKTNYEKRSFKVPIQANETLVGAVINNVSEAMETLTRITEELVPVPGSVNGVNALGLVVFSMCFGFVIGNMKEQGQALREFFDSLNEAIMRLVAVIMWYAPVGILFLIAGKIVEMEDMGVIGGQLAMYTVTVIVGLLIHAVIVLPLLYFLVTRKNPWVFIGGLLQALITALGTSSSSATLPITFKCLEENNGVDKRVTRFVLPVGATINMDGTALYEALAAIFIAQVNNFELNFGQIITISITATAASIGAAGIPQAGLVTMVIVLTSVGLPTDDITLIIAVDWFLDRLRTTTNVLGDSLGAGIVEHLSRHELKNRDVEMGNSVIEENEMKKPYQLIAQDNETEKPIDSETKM", "assay": "Electrophysiology specificity experiment in transfected HEK293 cells, EAAT1", "conditions": "apparent Ki, HEK293, internal solution 10 mM glutamate, mean ± SD", "experimental": "as §1, §2, §3"}, "EAAC1": {"biological_target": "T6, EAAC1 (UniProt P51907)", "T6 construct": "Ki EAAC1; other: apparent Ki, HEK293, internal solution 10 mM glutamate, mean ± SD", "T6 sequence (P51907 1-523)": "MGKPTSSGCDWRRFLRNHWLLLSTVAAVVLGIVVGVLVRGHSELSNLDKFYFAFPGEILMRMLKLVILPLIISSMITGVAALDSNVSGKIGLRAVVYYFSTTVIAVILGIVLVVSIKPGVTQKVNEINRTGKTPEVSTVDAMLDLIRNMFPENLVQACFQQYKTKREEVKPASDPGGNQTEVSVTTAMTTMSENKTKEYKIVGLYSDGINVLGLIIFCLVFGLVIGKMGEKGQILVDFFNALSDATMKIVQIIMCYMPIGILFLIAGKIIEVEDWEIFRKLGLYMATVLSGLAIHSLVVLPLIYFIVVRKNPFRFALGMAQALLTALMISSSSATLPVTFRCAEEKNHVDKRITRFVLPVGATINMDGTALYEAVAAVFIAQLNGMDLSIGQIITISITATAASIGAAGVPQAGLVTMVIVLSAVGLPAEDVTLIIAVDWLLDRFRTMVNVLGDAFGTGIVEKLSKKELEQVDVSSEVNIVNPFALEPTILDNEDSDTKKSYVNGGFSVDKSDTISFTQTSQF", "assay": "Electrophysiology specificity experiment in transfected HEK293 cells, EAAC1", "conditions": "apparent Ki, HEK293, internal solution 10 mM glutamate, mean ± SD", "experimental": "Cells were maintained at 37° C. in a fully humidified atmosphere containing 5% CO2. rASCT2, hASCT2, hASCT1, EAAT1, EAAT2, EAAC1, EAAT5 and YFP complementary DNAs were each used to transiently transfect HEK293 using POLYPLUS Jet-prime transfection reagent. Cells were analyzed using electrophysiological techniques 24-40 hours after transfection.\nas §2\nas §3, with “The figures show representative current traces and dose-response curves for hACST2 and rASCT2, used to obtain Ki values in TABLE 2 for compound SN 40.” left out"}, "[5]": {"conditions": "Table 3, dihydroxyproline derivatives, read-out: Ki All DNA: rASCT2"}, "[6]": {"conditions": "Table 3, dihydroxyproline derivatives, read-out: Ki All DNA: hASCT2"}, "[7]": {"conditions": "apparent Ki in the absence of substrate, HEK293, mean ± SD, read-out: Ki rASCT2"}, "[8]": {"conditions": "apparent Ki in the absence of substrate, HEK293, mean ± SD, read-out: Ki hASCT2"}}, "note": "Like-named read-outs stand apart in the source and are kept apart here."}
{"smiles": "O=C(OC[C@]1(O)CN[C@H](C(=O)O)C1)c1ccc(-c2ccc(F)cc2)cc1", "note": "[SN66]", "values": [{"measurement": "Ki", "setting": "rASCT2 [1]; [5]", "value": 27.6, "unit": "µM"}, {"measurement": "Ki", "setting": "hASCT2 [2]; [6]", "value": 15.5, "unit": "µM"}, {"measurement": "Ki", "setting": "rASCT2 [3]; 1 mM ala", "value": 49, "unit": "µM"}, {"measurement": "Ki", "setting": "hASCT2 [4]; 1 mM ala", "value": 28, "unit": "µM"}]}
{"smiles": "O=C(Nc1cccc(C(=O)O[C@@H]2CN[C@H](C(=O)O)C2)c1)c1ccccc1", "note": "[SN 16]", "values": [{"measurement": "Ki", "setting": "rASCT2 [1]; [7]", "value": "0.11 ± 0.04", "unit": "µM"}, {"measurement": "Ki", "setting": "EAAT5", "value": "566 ± 188", "unit": "µM"}, {"measurement": "Ki", "setting": "hASCT1; apparent Ki in the absence of substrate, HEK293, mean ± SD, read-out: Ki hASCT1", "value": "10.1 ± 0.6", "unit": "µM"}, {"measurement": "Ki", "setting": "EAAT1", "value": "49.4 ± 9.7", "unit": "µM"}, {"measurement": "Ki", "setting": "hASCT2 [2]; [8]", "value": "0.39 ± 0.1", "unit": "µM"}]}
{"smiles": "O=C(O)[C@H]1NC[C@@H](NCc2ccc(-c3ccccc3)cc2)[C@@H]1O", "note": "[SN 50]", "values": [{"measurement": "Ki", "setting": "rASCT2 [1]; [7]", "value": "1.34 ± 0.1", "unit": "µM"}, {"measurement": "Ki", "setting": "EAAT1", "value": "2.71 ± 0.7", "unit": "µM"}, {"measurement": "Ki", "setting": "hASCT2 [2]; [8]", "value": "1.61 ± 0.2", "unit": "µM"}, {"measurement": "Ki", "setting": "EAAC1", "value": "20.1 ± 6.2", "unit": "µM"}]}
{"smiles": "O=C(OC[C@@]1(O)CN[C@H](C(=O)O)C1)c1ccc(-c2ccc(C(F)(F)F)cc2)cc1", "note": "[SN59]", "values": [{"measurement": "Ki", "setting": "rASCT2 [1]; [5]", "value": 0.005, "unit": "µM"}, {"measurement": "Ki", "setting": "hASCT1; Table 3, dihydroxyproline derivatives, read-out: Ki All DNA: hASCT1", "value": 0.002, "unit": "µM"}, {"measurement": "Ki", "setting": "hASCT2 [2]; [6]", "value": 3.24, "unit": "µM"}, {"measurement": "Competition Expt % block (given as a decimal): rASCT2", "setting": "rASCT2 [3]; 1 mM ala", "value": "full"}, {"measurement": "Ki", "setting": "rASCT2 [3]; 1 mM ala", "value": 0.15, "unit": "µM"}, {"measurement": "Competition Expt % block (given as a decimal): hASCT2", "setting": "hASCT2 [4]; 1 mM ala", "value": "full"}, {"measurement": "Ki", "setting": "hASCT2 [4]; 1 mM ala", "value": 19.4, "unit": "µM"}]}
{"smiles": "O=C(OC[C@]1(O)CN[C@H](C(=O)O)C1)c1ccc(-c2ccc(C(F)(F)F)cc2)cc1", "note": "[SN67]", "values": [{"measurement": "Ki All DNA: hASCT1", "setting": "hASCT1; Table 3, dihydroxyproline derivatives", "value": "NA, NC"}, {"measurement": "Ki", "setting": "hASCT2 [2]; [6]", "value": 115, "unit": "µM"}, {"measurement": "Competition Expt % block (given as a decimal): rASCT2", "setting": "rASCT2 [3]; 0.5 mM ala, decimal fraction", "value": 0}, {"measurement": "Competition Expt % block (given as a decimal): hASCT2", "setting": "hASCT2 [4]; 0.5 mM ala, decimal fraction", "value": 0}]}
